Where a name gives a salt, the structure may show the parent alone. Read-outs that look alike come from different tables or passages of the source.
How the values were obtained:
[1] = biological target: human GlyT1c transporter (Homo sapiens (Human), UniProt P48067); experiment: Radioligand binding assay using recombinant CHO cell membranes expressing human GlyT1; settings: read-out: radioligand binding Kiapp
In short: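 Apparent Ki values were derived by Cheng-Prusoff from one-site IC50 fits of displacement curves. Membranes from recombinant CHO cells (human GlyT1c, 50 μg/ml) were incubated 1 h at room temperature with 0.5 nM [^3H]-(R)-NPTS and test compound (1% DMSO, pH 7.5 buffer), with 10 μM Org24598 for non-specific binding, then filtered and counted.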

[2] = biological target: human GlyT1c (Homo sapiens (Human), UniProt P48067); experiment: [3H]-Glycine uptake into recombinant CHO cells expressing human GlyT1; assay type: cell-based; settings: hGlyT1c_5_CHO cells, 200 nM [3H]-glycine
Sequence of human GlyT1c (P48067 whole entry): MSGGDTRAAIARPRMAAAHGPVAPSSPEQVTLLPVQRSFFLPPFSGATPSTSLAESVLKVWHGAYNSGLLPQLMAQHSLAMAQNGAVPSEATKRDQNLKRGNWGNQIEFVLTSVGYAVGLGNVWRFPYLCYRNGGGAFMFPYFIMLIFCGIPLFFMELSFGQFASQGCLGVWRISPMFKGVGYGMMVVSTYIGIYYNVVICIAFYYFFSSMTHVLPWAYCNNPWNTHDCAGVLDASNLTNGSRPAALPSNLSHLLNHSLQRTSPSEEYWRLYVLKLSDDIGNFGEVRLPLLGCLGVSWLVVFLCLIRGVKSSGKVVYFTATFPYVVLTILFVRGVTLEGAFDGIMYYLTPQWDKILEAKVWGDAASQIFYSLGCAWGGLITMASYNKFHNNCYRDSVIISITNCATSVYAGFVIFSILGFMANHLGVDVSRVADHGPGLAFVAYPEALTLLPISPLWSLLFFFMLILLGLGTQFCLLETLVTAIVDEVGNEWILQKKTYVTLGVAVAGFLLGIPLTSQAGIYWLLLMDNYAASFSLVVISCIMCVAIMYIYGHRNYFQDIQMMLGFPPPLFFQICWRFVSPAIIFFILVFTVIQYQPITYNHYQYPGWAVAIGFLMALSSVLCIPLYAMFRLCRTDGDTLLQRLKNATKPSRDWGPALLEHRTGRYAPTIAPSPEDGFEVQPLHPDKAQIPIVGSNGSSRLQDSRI
In short: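 hGlyT1c-expressing CHO cells plated at 20,000 cells/well and cultured 24 h; [3H]-glycine incorporation read continuously by solid-phase scintillation for up to 3 h. IC50 from four-parameter logistic fit using the linear uptake phase between 60 and 120 min.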

[3] = radioligand [3H]-(R)-NPTS (examples 1-19, 22-52, 54-87)
[4] = examples 88-204, radioligand not specified by footnote

Sequence of human GlyT1c transporter (P48067 whole entry): as above

Ki [1, 3]	IC50 [2]	Ki [1, 4]	Compound
≤ 1 µM	≤ 1 µM		O=S(=O)(NCCOc1ccc2c(c1)C(C1(c3ccc(Cl)cc3)CCC1)NCC2)c1ccccc1 (stereo not shown) [Example 62, N-(2-{1-[1-(4-Chloro-phenyl)-cyclobutyl]-1,2,3,4-tetrahydro-isoquinolin-7-yloxy}-ethyl)-benzenesulfonamide hydrochloride]
≤ 0.1 µM	≤ 0.1 µM		CCCS(=O)(=O)NCCOc1ccc2c(c1)C(C1(c3ccc(F)cc3)CCC1)NCC2 (stereo not shown) [Example 65, N-[2-({1-[1-(4-Fluorophenyl)cyclobutyl]-1,2,3,4-tetrahydroisoquinolin-7-yl}oxy)ethyl]propane-1-sulfonamide hydrochloride]
≤ 10 µM	≤ 1 µM		CCCS(=O)(=O)NCCOc1ccc2c(c1)C(C1(c3ccc(F)cc3)CCC1)N(C(=N)N)CC2 (stereo not shown) [Example 72, 1-[1-(4-Fluorophenyl)cyclobutyl]-7-{2-[(propylsulfonyl)amino]ethoxy}-3,4-dihydroisoquinoline-2(1H)-carboximidamide acetate]
≤ 10 µM	≤ 100 µM		CCCS(=O)(=O)N1CCN(c2cc3c(cc2OC)C(C2(c4ccc(Cl)cc4)CCC2)N(S(=O)(=O)CCC)CC3)CC1 (stereo not shown) [Example 84, 1-[1-(4-Chlorophenyl)cyclobutyl]-7-methoxy-2-(propylsulfonyl)-6-[4-(propylsulfonyl)-piperazin-1-yl]-1,2,3,4-tetrahydroisoquinoline]
	≤ 1 µM	≤ 0.1 µM	O=S(=O)(NCCOc1ccc2c(c1)C(C1(c3cccc(F)c3)CCC1)NCC2)c1cccnc1 (stereo not shown) [Example 101, N-[2-({1-[1-(3-fluorophenyl)cyclobutyl]-1,2,3,4-tetrahydroisoquinolin-7-yl}oxy)ethyl]pyridine-3-sulfonamide dihydrochloride]
	≤ 0.1 µM	≤ 0.1 µM	CC(C)(O)CS(=O)(=O)NCCOc1ccc2c(c1)C(C1(c3ccc(Cl)cc3)CCC1)NCC2 (stereo not shown) [Example 103, N-[2-({1-[1-(4-Chlorophenyl)cyclobutyl]-1,2,3,4-tetrahydroisoquinolin-7-yl}oxy)ethyl]-2-hydroxy-2-methylpropane-1-sulfonamide hydrochloride]
	≤ 10 µM	≤ 1 µM	O=S(=O)(NCCOc1ccc2c(c1)C(C1(c3cccc(F)c3)CCC1)NCC2)c1cccs1 (stereo not shown) [Example 106, N-[2-({1-[1-(3-Fluorophenyl)cyclobutyl]-1,2,3,4-tetrahydroisoquinolin-7-yl}oxy)ethyl]thiophene-2-sulfonamide hydrochloride]
	≤ 10 µM	≤ 1 µM	O=S(=O)(NCc1ccc2c(c1)C(C1(c3ccc(Cl)cc3)CCC1)NCC2)c1cccnc1 (stereo not shown) [Example 108, N-({1-[1-(4-Chlorophenyl)cyclobutyl]-1,2,3,4-tetrahydroisoquinolin-7-yl}methyl)pyridine-3-sulfonamide dihydrochloride]
	≤ 10 µM	≤ 1 µM	O=S(=O)(CCCOc1ccc2c(c1)C(C1(c3ccc(Cl)cc3)CCC1)NCC2)Nc1ccccc1 (stereo not shown) [Example 112, 3-({1-[1-(4-Chlorophenyl)cyclobutyl]-1,2,3,4-tetrahydroisoquinolin-7-yl}oxy)-N-phenylpropane-1-sulfonamide hydrochloride]
	≤ 100 µM	≤ 1 µM	O=S(=O)(Nc1ccccc1Oc1ccc2c(c1)C(C1(c3ccc(Cl)cc3)CCC1)NCC2)c1cccs1 (stereo not shown) [Example 116, N-[2-({1-[1-(4-Chlorophenyl)cyclobutyl]-1,2,3,4-tetrahydroisoquinolin-7-yl}oxy)phenyl]thiophene-2-sulfonamide hydrochloride]
	≤ 10 µM	≤ 1 µM	CC(C)NS(=O)(=O)CCCOc1ccc2c(c1)C(C1(c3ccc(Cl)cc3)CCC1)NCC2 (stereo not shown) [Example 117, 3-({1-[1-(4-Chlorophenyl)cyclobutyl]-1,2,3,4-tetrahydroisoquinolin-7-yl}oxy)-N-(propan-2-yl)propane-1-sulfonamide hydrochloride]
	≤ 10 µM	≤ 1 µM	CC(C)(C)NS(=O)(=O)CCCOc1ccc2c(c1)C(C1(c3ccc(Cl)cc3)CCC1)NCC2 (stereo not shown) [Example 118, N-tert-Butyl-3-({1-[1-(4-chlorophenyl)cyclobutyl]-1,2,3,4-tetrahydroisoquinolin-7-yl}oxy)propane-1-sulfonamide hydrochloride]
	≤ 10 µM	≤ 10 µM	COc1ccccc1NS(=O)(=O)CCCOc1ccc2c(c1)C(C1(c3ccc(Cl)cc3)CCC1)NCC2 (stereo not shown) [Example 121, 3-({1-[1-(4-Chlorophenyl)cyclobutyl]-1,2,3,4-tetrahydroisoquinolin-7-yl}oxy)-N-(2-methoxyphenyl)propane-1-sulfonamide hydrochloride]
	≤ 100 µM	≤ 10 µM	CC(C)(C)OC(=O)N1CCN(S(=O)(=O)CCCOc2ccc3c(c2)C(C2(c4ccc(Cl)cc4)CCC2)NCC3)CC1 (stereo not shown) [Example 123, tert-Butyl 4-{[3-({1-[1-(4-chlorophenyl)cyclobutyl]-1,2,3,4-tetrahydroisoquinolin-7-yl}oxy)propyl]sulfonyl}piperazine-1-carboxylate]
	≤ 10 µM	≤ 10 µM	CC(C)(C)OC(=O)NCCNS(=O)(=O)CCCOc1ccc2c(c1)C(C1(c3ccc(Cl)cc3)CCC1)NCC2 (stereo not shown) [Example 126, tert-Butyl [2-({[3-({1-[1-(4-chlorophenyl)cyclobutyl]-1,2,3,4-tetrahydroisoquinolin-7-yl}oxy)propyl]sulfonyl}amino)ethyl]carbamate]
	≤ 100 µM	≤ 10 µM	NCCNS(=O)(=O)CCCOc1ccc2c(c1)C(C1(c3ccc(Cl)cc3)CCC1)NCC2 (stereo not shown) [Example 130, N-(2-Aminoethyl)-3-({1-[1-(4-chlorophenyl)cyclobutyl]-1,2,3,4-tetrahydroisoquinolin-7-yl}oxy)propane-1-sulfonamide dihydrochloride]
	≤ 10 µM	≤ 10 µM	CN(C)CCNS(=O)(=O)CCCOc1ccc2c(c1)C(C1(c3ccc(Cl)cc3)CCC1)NCC2 (stereo not shown) [Example 132, 3-({1-[1-(4-Chlorophenyl)cyclobutyl]-1,2,3,4-tetrahydroisoquinolin-7-yl}oxy)-N-[2-(dimethylamino)ethyl]propane-1-sulfonamide dihydrochloride]
	≤ 10 µM	≤ 10 µM	O=S(=O)(CCCOc1ccc2c(c1)C(C1(c3ccc(Cl)cc3)CCC1)NCC2)N1CCNCC1 (stereo not shown) [Example 133, 1-[1-(4-Chlorophenyl)cyclobutyl]-7-[3-(piperazin-1-ylsulfonyl)propoxy]-1,2,3,4-tetrahydroisoquinoline dihydrochloride]
	≤ 100 µM	≤ 10 µM	COCCNS(=O)(=O)CCCOc1ccc2c(c1)C(C1(c3ccc(Cl)cc3)CCC1)NCC2 (stereo not shown) [Example 135, 3-({1-[1-(4-Chlorophenyl)cyclobutyl]-1,2,3,4-tetrahydroisoquinolin-7-yl}oxy)-N-(2-methoxyethyl)propane-1-sulfonamide hydrochloride]
	≤ 0.1 µM	≤ 0.1 µM	CCCS(=O)(=O)NCCOc1ccc2c(c1)C(C1(c3ccc(Cl)c(N)c3)CCC1)NCC2 (stereo not shown) [Example 142, N-[2-({1-[1-(3-Amino-4-chlorophenyl)cyclobutyl]-1,2,3,4-tetrahydroisoquinolin-7-yl}oxy)ethyl]propane-1-sulfonamide dihydrochloride]
	≤ 0.1 µM	≤ 0.1 µM	CCCS(=O)(=O)NCCOc1ccc2c(c1)C(C(C)c1ccc(Cl)cc1)NCC2 (stereo not shown) [Example 145, N-[2-({1-[1-(4-Chlorophenyl)ethyl]-1,2,3,4-tetrahydroisoquinolin-7-yl}oxy)ethyl]propane-1-sulfonamide hydrochloride]
	≤ 10 µM	≤ 0.1 µM	CC(C)(C)CS(=O)(=O)NCCOc1ccc2c(c1)C(C1(c3ccc(Cl)cc3)CCC1)NCC2 (stereo not shown) [Example 155, N-[2-({1-[1-(4-Chlorophenyl)cyclobutyl]-1,2,3,4-tetrahydroisoquinolin-7-yl}oxy)ethyl]-2,2-dimethylpropane-1-sulfonamide hydrochloride]
	≤ 10 µM	≤ 1 µM	Nc1ccc(S(=O)(=O)NCCOc2ccc3c(c2)C(C2(c4ccc(Cl)cc4)CCC2)NCC3)cn1 (stereo not shown) [Example 165, 6-Amino-N-[2-({1-[1-(4-chlorophenyl)cyclobutyl]-1,2,3,4-tetrahydroisoquinolin-7-yl}oxy)ethyl]pyridine-3-sulfonamide]
	≤ 10 µM	≤ 1 µM	O=S(=O)(NCCOc1ccc2c(c1)C(C1(c3ccc(Cl)cc3)CCC1)NCC2)c1c(Cl)nc2sccn12 (stereo not shown) [Example 167, 6-Chloro-N-[2-({1-[1-(4-Chlorophenyl)cyclobutyl]-1,2,3,4-tetrahydroisoquinolin-7-yl}oxy)ethyl]imidazo[2,1-b][1,3]thiazole-5-sulfonamide hydrochloride]
	≤ 10 µM	≤ 10 µM	CCCS(=O)(=O)NCCOc1ccc2c(c1)C(C(O)(c1ccc(Cl)cc1)c1ccc(Cl)cc1)NCC2 (stereo not shown) [Example 176, N-[2-({1-[Bis(4-chlorophenyl)(hydroxy)methyl]-1,2,3,4-tetrahydroisoquinolin-7-yl}oxy)ethyl]propane-1-sulfonamide hydrochloride]
	≤ 10 µM	≤ 10 µM	CN(C)CCCS(=O)(=O)NCCOc1ccc2c(c1)C(C1(c3ccc(Cl)cc3)CCC1)NCC2 (stereo not shown) [Example 181, N-[2-({1-[1-(4-Chlorophenyl)cyclobutyl]-1,2,3,4-tetrahydroisoquinolin-7-yl}oxy)ethyl]-3-(dimethylamino)propane-1-sulfonamide (2E)-but-2-enedioate]

Source: patent US8653100B2 (AbbVie Inc., priority 2008, dated 2014)
